According to patent US9834660B2, “Rare earth metal complexes that excite in the long UV wavelength range” (HONEYWELL INTERNATIONAL INC., priority 2007, dated 2017):

Experiment: Lightfastness: fluorescence intensity of dried drops on filter paper before and after SOL2 irradiation (simulated sunlight behind window glass)
Type: physicochemical
Conditions: dried drop on filter paper; for fluorescence intensity after 20 h of irradiation: after 20 h of irradiation (SOL2), 366 nm; for starting fluorescence intensity under 366 nm wavelength: before SOL2 irradiation, formula (IV) 5% solution in water, comparator in ethanol
From the text: As used herein, “lightfast,” “lightfastness,” and “light stable” are used interchangeably as measures of the degree of stability of fluorescence when a compound or composition is irradiated with light energy. The lightfastness of the europium complex of formula (IV), Europium[tris-4,4′-[3-[4-(4-sulfophenyl)-2-pyridinyl]-1,2,4-triazine-5,6-diphenyl]-bis-benzenesulfonic acid, trisodium)] chloride, was compared with a known europium diketonate complex, europium tris-benzoyltrifluoro-acetone, as follows: a 5% solution containing formula (IV) (in water) and a solution of europium-tris-benzoyltrifluoro-acetone (in ethanol) were prepared. One drop from each solution was placed onto a piece of filter paper. The drops were dried in air. The dried drops were then irradiated with SOL2 equipment (simulation of sunlight behind window glass). The starting fluorescence intensity under 366 nm wavelength for the drop containing europium-tris-benzoyltrifluoro-acetone was 19.4 cd/m^2, and the starting fluorescence intensity for the drop containing formula (IV) was 11.5 cd/m^2. After 20 h of irradiation at 366 nm, the fluorescence intensity for the drop containing europium-tris-benzoyltrifluoro-acetone had decreased to only 3.2 cd/m^2, as compared with a fluorescence intensity for the drop containing formula (IV) that was 10.7 cd/m^2.
This occurred even though the molar concentration of the solution containing formula (IV) was lower than the molar concentration of europium-tris-benzoyltrifluoro-acetone (2.2×10^−4 mol versus 6×10^−4 mol, respectively).

Substance	fluorescence intensity after 20 h of irradiation	starting fluorescence intensity under 366 nm wavelength
Europium[tris-4,4′-[3-[4-(4-sulfophenyl)-2-pyridinyl]-1,2,4-triazine-5,6-diphenyl]-bis-benzenesulfonic acid, trisodium)] chloride [formula (IV)]	10.7 cd/m^2	11.5 cd/m^2
europium tris-benzoyltrifluoro-acetone [europium-tris-benzoyltrifluoro-acetone]	3.2 cd/m^2	19.4 cd/m^2
